The text below walks through data of US6897317B2, “4-Phenyltetrahydrochinoline utilized as an inhibitor of the cholesterol ester transfer protein” (Bayer Aktiengesellschaft, priority 1997, dated 2005).

One data set has as its target T1, cholesterol ester transfer protein (CETP) (Homo sapiens, UniProt P11597).
T1 construct: CETP is obtained in partially purified form from human plasma by differential centrifugation and column chromatography; from tissue; host or cells: human plasma
T1 sequence (P11597 18-493): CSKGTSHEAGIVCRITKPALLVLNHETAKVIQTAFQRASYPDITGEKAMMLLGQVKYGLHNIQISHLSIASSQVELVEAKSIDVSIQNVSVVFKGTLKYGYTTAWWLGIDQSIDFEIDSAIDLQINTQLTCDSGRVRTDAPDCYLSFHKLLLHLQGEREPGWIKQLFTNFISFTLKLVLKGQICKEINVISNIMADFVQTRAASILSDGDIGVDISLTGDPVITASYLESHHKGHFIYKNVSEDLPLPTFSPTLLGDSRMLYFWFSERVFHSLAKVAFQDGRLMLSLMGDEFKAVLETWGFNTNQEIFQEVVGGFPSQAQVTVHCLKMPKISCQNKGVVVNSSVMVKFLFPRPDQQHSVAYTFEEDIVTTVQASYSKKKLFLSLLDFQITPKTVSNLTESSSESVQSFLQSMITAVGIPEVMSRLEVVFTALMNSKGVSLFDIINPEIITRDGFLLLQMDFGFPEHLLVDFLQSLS
Briefly: CETP inhibition test (3H-cholesterol ester transfer from HDL to biotinylated LDL, SPA). The class given is biochemical. Conditions: CETP partially purified from human plasma; 37° C., 18 h; concentration at which transfer is reduced by half. How it is done: Preparation of CETP • CETP is obtained in partially purified form from human plasma by differential centrifugation and column chromatography and used for the test. For this purpose, human plasma is adjusted to a density of 1.21 g per ml using NaBr and centrifuged at 50,000 rpm at 4° C. for 18 h. The bottom fraction (d>1.21 g/ml) is applied to a Sephadex®Phenyl-Sepharose 4B (Pharmacia) column, washed with 0.15 m NaCl/0.001 M TrisHCl pH 7.4 and subsequently eluted using dist. water. The CETP-active fractions are pooled, dialysed against 50 mM Na-acetate pH 4.5 and applied to a CM-Sepharose® (Pharmacia) column. Elution is subsequently carried out using a linear gradient (0-1 M NaCl). The pooled CETP fractions are dialysed against 10 mM Tris HCl pH 7.4 and subsequently purified further by chromatography over a Mono Q® column (Pharmacia).
Preparation of Radioactively Labelled HDL • 50 ml of fresh human EDTA plasma are adjusted to a density of 1.12 using NaBr and centrifuged at 4° C. in a Ty 65 rotor at 50,000 rpm for 18 h. […] CETP test • To assess the CETP activity, the transfer of ^3H-cholesterol ester from human HD-lipoproteins to biotinylated LD-lipoproteins is measured. • The reaction is terminated by addition of Streptavidin-SPA® beads (Amersham) and the transferred radioactivity is directly measured in a liquid scintillation counter. • In the assay mixture, […] (˜50,000 cpm) with 10 ml of Biotin-LDL (Amersham) in 50 mM Hepes/0.15 m NaCl/0.1% bovine serum albumin/0.05% NaN3 pH 7.4 are incubated with 10 ml of CETP (1 mg/ml) and 3 ml of a solution of the substance to be tested (dissolved in 10% DMSO/1% BSA) at 37° C. for 18 h. […] of the SPA streptavidin bead solution (TRKQ 7005) are subsequently added, the mixture is incubated with shaking for another 1 h and subsequently measured in a scintillation counter. • The controls used are corresponding incubations with 10 ml of buffer, 10 ml of CETP at 4° C. and 10 ml of CETP at 37° C. • The activity which is transferred in the control experiments with CETP at 37° C. is taken to be 100% transfer. […]
As for `CC1(C)Cc2nc(C3CCCC3)c(C(F)c3ccc(C(F)(F)F)cc3)c(-c3ccc(F)cc3)c2C(C)(O)C1` (single isomer, unassigned) [Example 1, 2-Cyclopentyl-4-(4-fluorophenyl)-3-[fluoro-(4-trifluoromethyl-phenyl)-methyl]-5-methyl-7,7-dimethyl-5,6,7,8-tetrahydro-quinolin-5-ol], the IC50 (in general, the midpoint of a concentration-inhibition curve) was determined as 6 nM.
`Cc1ccc(-c2c([C@@H](F)c3ccc(C(F)(F)F)cc3)c(C3CCCC3)nc3c2[C@@H](O)CC(C)(C)C3)cc1` [Example 53] had an IC50 of 10 nM.
Same read-out and setting: under `CC1(C)Cc2nc(C3CCCC3)c([C@@H](F)c3ccc(C(F)(F)F)cc3)c(-c3cccc(F)c3)c2[C@@H](O)C1` [Example 61] stands 23 nM.

Tested on in the next data set: not given
Experiment: not given
Details: not given
Take `CCOc1ccc(-c2c([C@@H](F)c3ccc(C(F)(F)F)cc3)c(C3CCCC3)nc3c2[C@@H](O)CC(C)(C)C3)cc1.Cl`: the melting point – broadly, the temperature, or range, at which the solid turns liquid – lay within 206 to 207 °C.
Same read-out and setting: under `CC1(C)Cc2nc(C3CCCC3)c(C(=O)c3ccc(C(F)(F)F)cc3)c(-c3ccc(F)c(F)c3)c2[C@@H](O)C1` [Example 46] stands 166 to 168 °C; under `COc1ccc(-c2c(C(=O)c3ccc(C(F)(F)F)cc3)c(C3CCCC3)nc3c2[C@@H](O)CC(C)(C)C3)cc1` [Example 47], 171 to 174 °C; under `CC1(C)Cc2nc(C3CCCC3)c(C(=O)c3ccc(C(F)(F)F)cc3)c(-c3ccc(C(F)(F)F)cc3)c2[C@@H](O)C1` [Example 48], 157 to 162 °C.
Regarding `CC1(C)Cc2nc(C3CCCC3)c(C(=O)c3ccc(C(F)(F)F)cc3)c(-c3cccc(F)c3)c2[C@@H](O)C1` [Example 49], the melting point lay in the range of 167 to 168 °C.
In the case of `Cc1ccc(-c2c(C(=O)c3ccc(C(F)(F)F)cc3)c(C3CCCC3)nc3c2[C@@H](O)CC(C)(C)C3)cc1` [Example 51], the melting point is 153 to 155 °C.
Turning to `CC1(C)Cc2nc(C3CCCC3)c(C(=O)c3ccc(C(F)(F)F)cc3)c(-c3ccc(Cl)cc3)c2[C@@H](O)C1` [Example 52], the melting point is 168 to 169 °C.
Same read-out and setting: under `Cc1ccc(-c2c([C@@H](F)c3ccc(C(F)(F)F)cc3)c(C3CCCC3)nc3c2[C@@H](O)CC(C)(C)C3)cc1` [Example 53] stands 156 to 158 °C; under `CC1(C)Cc2nc(C3CCCC3)c([C@@H](F)c3ccc(C(F)(F)F)cc3)c(-c3ccc(C(F)(F)F)cc3)c2[C@@H](O)C1` [Example 54], 175 to 176 °C; under `CC1(C)Cc2nc(C3CCCC3)c([C@@H](F)c3ccc(C(F)(F)F)cc3)c(-c3ccc(Cl)cc3)c2[C@@H](O)C1` [Example 55], 138 to 139 °C.
On the same count and under the same terms, under `CC1(C)Cc2nc(C3CCCC3)c(Cc3ccc(C(F)(F)F)cc3)c(-c3ccc(Cl)cc3)c2[C@@H](O)C1` [Example 56] stands 136 to 137 °C.
The same measure, in the same setting: then `CC1(C)Cc2nc(C3CCCC3)c([C@@H](F)c3ccc(C(F)(F)F)cc3)c(-c3cccc(F)c3)c2[C@@H](O)C1` [Example 61], with 129 °C; and `Cc1ccc(-c2c(Cc3ccc(C(F)(F)F)cc3)c(C3CCCC3)nc3c2[C@@H](O)CC(C)(C)C3)cc1` [Example 62], with 106 to 108 °C.
